Values quoted from earlier work, collected in US20230046815A1, “Wound honey with a pump dispenser” (priority 2021, published 2023).

System: Salmonella sp.
Conditions: single agent

O=C(O)CC(O)(CC(=O)O)C(=O)O [Citric Acid]
Minimal Bactericidal Concentration: 5%

OO [Hydrogen Peroxide]
Minimal Bactericidal Concentration: 3.12%
